Read-outs that look alike come from different tables or passages of the source.
Legend:
[1] = system: human body louse (Pediculus humanus); experiment: LC50 tests against the human body louse; settings: for Potency index: LC50 value compared with that of 1,2-decanediol (=100%); for LC50: read-out: LC50 value; for LC50 / LC50 value: tests against lice (Pediculus humanus)
house flies = type: in vivo, Musca domestica
Source text: A further example of the use of the compounds of the present invention is shown by testing decane-1,2-diol against house flies in a standard industry protocol for insecticides.

[2] = system: house dust mite Dermatophagoides pteronyssinus; experiment: House dust mite immersion test, mortality; type: in vivo
Source text: The utility of the vicinal diols is further illustrated by the results of experiments against the house dust mite Dermatophagoides pteronyssinus according to accepted industry protocols. Mites were sealed in a cotton envelope and briefly immersed (5 seconds) in dilute solutions (2.5%) of selected diols. The mites were examined one hour after immersion and mortality calculated. The results are shown in Table 3 below with comparative results for a proprietary carpet shampoo, permethrin insecticide and water (as controls).

cockroaches = experiment: Immersion of cockroaches in test formulations, mortality; type: in vivo; settings: immersed for a few seconds and blotted dry
Source text: (§1) Vicinal diols are readily formulated in aqueous systems using non-toxic co-solvents such as isopropyl alcohol or by use of surfactants such as Tween®. This makes them eminently suitable for inclusion into many household or industrial, pesticidal or cleansing products. In particular they can be incorporated into pharmaceutical preparations for use on humans or animals. The treatment of lice and cockroaches with formulations containing 1,2-octanediol or 1,2-decanediol is tabulated in Table 4 along with control results for the solvent systems employed. In a procedure following standard industry protocols the subject animals were immersed for a few seconds in the test formulations and blotted dry. Mortality after 24 hrs was measured for the lice, after 1 hr for the cockroaches.

lice [3] = experiment: Immersion of lice in test formulations, mortality; type: in vivo; settings: immersed for a few seconds and blotted dry
Source text: as §1

lice [4] = experiment: Egg-laying activity of treated lice; type: in vivo; settings: FIG. 2
Source text: FIG. 2 is a further graph illustrating a relationship between diol chain length and egg-laying activity of treated lice.

[5] = system: human body louse (Pediculus humanus); settings: in vivo

Structure (SMILES) | Potency index [1] | LC50 [1] [mM] | LC50 value [1] | other results
CCCCCCCCC(O)CO (racemic) [1,2-Decanediol] | 100% | 12 |  | pediculicidal activity (in words) ([1]; against lice): significantly superior to 1,3-decanediol; Mortality (house flies; in vivo): More than 80%; Mortality ([2]; in vivo): 95%
CC1(C)C(C=C(Cl)Cl)C1C(=O)OCc1cccc(Oc2ccccc2)c1 (stereo not drawn) [0.25% Permethrin, Permethrin] |  |  |  | Mortality ([2]; mites in cotton envelope immersed 5 seconds, diols as 2.5% solutions, examined one hour after immersion): 100%; Cockroach mortality after 1 hr (cockroaches): 100%; Lice mortality after 24 hr (lice [3]): 100%
CCCC(O)C(O)CO (stereo not drawn) [1,2,3-Hexanetriol] | Not effective |  | Not calculable | 
OCCCCC(O)CO (stereo not drawn) [1,2,6-Hexanetriol] | Not effective |  | Not calculable | 
CCC(O)CO (stereo not drawn) [1,2-Butanediol] | Not effective |  | >700 mmol | 
CCCCC(O)CO (stereo not drawn) [1,2-Hexanediol] | 6% |  | >200 mmol | 
CCCCCCC(O)CO (stereo not drawn) [1,2-Octanediol] | 30% | 40 |  | Mortality ([2]; in vivo): 65%; prevention of egg laying (in words) (lice [4]): especially efficacious in the prevention of egg laying
CC(O)CCO (stereo not drawn) [1,3-Butanediol] | Not effective |  | >2000 mmol | 
CCCCCCCC(O)CCO (stereo not drawn) [1,3-Decanediol] | 30% | 40 |  | 
CCCCCC(O)CCO (stereo not drawn) [1,3-Octanediol] | Not effective |  | >400 mmol | 
CC(O)CCCCO (stereo not drawn) [1,5-Hexanediol] | Not effective |  | Not calculable | 
OCCCCCCO [1,6-Hexanediol] | Not effective |  |  | LC50 value [5]: Not calculable
CCCCCCCCCCO [1-Decanol] | 32% | 35 |  | 
CC(O)CCC(C)O (stereo not drawn) [2,5-Hexanediol] | Not effective |  | Not calculable | 
CCCCCCCCC(C)O (stereo not drawn) [2-Decanol] | 34% | 37 |  | 
CCCC(O)C(CC)CO (stereo not drawn) [2-Ethyl-1,3-hexanediol] | 20% |  |  | LC50 [5]: 60 mM
CCCCC(CC)CO (stereo not drawn) [2-Ethyl-1-hexanol] | 4% |  |  | LC50 value [5]: 300 mmol
CCCCCCCC(CC)C(O)CO (stereo not drawn) [3-Ethyl-1,2-decanediol] | Not effective |  | Not calculable | 
CCCCCCCC(CC)CCO (stereo not drawn) [3-Ethyl-1-decanol] | 20% | 62 |  | 
CCCCCCCCC(CCCCCCC)C(O)CO (stereo not drawn) [3-Octyl-1,2-decanediol] | 12% | 97 |  | 
CCCCCCC(O)CCC (stereo not drawn) [4-Decanol] | 6% |  | 183 mmol | 
C=CCCCCCCCCO [9-Decene-1-ol] | 36% | 33 |  | 
OCCCCCCCCCCO [decane-1,10-diol] |  |  |  | insecticidal activity (in words) (house flies; house flies): did not exhibit insecticidal activity
